Experimental data taken from patent publication US20240229055A9, “MOGROSIDE COMPOSITIONS AND METHODS OF PRODUCING SAME” (Elo Life Systems, priority 2022, published 2024).

Tests used:
[1] = system: sensory panel of trained judges; test: Concentration response curve: sweetness intensity scored against sucrose reference standards, Beidler equation fit; assay type: in vivo, human; settings: for Potency at 5 SEV: room temperature, P=SEV*10,000/C; for Beidler equation SEV=a*C/(b+C): constant b (concentration) / Beidler equation SEV=a*C/(b+C): constant a (maximum SEV): best fitting Beidler equation; for Beidler equation SEV=a*C/(b+C): constant b (concentration): C in ppm or mg/L; for Beidler equation SEV=a*C/(b+C): constant a (maximum SEV): SEV = % sucrose equivalent sweetness
Protocol: A blend composed of 80% purified mogroside-V (Chem Faces, CFS202202), 15% 11-oxo-mogroside-V (Chem Faces, CFS202201), and 5% mogroside IIIA-1 (Chem Faces, CFS202201) was diluted to six different concentrations (from 100 ppm to 650 ppm) in spring water (Ice Mountain, retail). For each solution, a set of five reference standards of sucrose dissolved in water in 0.5% (w/w) concentration increments was also prepared. Each concentration of the mogroside blend was evaluated by 6-8 trained judges. Samples were presented in 4-oz soufflé cups at room temperature, and the test sample was labeled with a random 3-digit code. Panelists tasted the blind-coded sample compared to the set of reference samples to determine the sweetness intensity score to the nearest 0.1 unit. Each concentration was evaluated in duplicate. The sweetness intensity scores were then plotted against the mogroside blend concentration to make a concentration response curve, and the best fitting Beidler equation was generated. […] is a 90% pure mogroside V containing about 6% 11-oxo mogroside-V. Five different concentrations of V90 (Huacheng Bio, LHGE-230401), ranging from 100 ppm to 500 ppm, were diluted in spring water (Ice Mountain, retail). Each dilution was presented to a panel of 7-8 judges experienced in evaluating sweeteners and was accompanied by a range of five sucrose solution reference standards bracketing the sweetness intensity of the test sample in 0.5% (w/w) increments. Panelists assigned a sweetness intensity score to each test sample, including blind duplicates, to the nearest 0.1 unit. All samples were served at room temperature in 4-oz soufflé cups with the test samples labeled with random 3-digit codes. Water and […] crackers were provided for rinsing between samples. Both individual mogrosides were also evaluated at five different concentrations in spring water (Ice Mountain, retail) for sweetness intensity. 11-oxo-mogroside was diluted to concentrations ranging from 200 ppm to 600 ppm and mogroside IIIA-1 was diluted to concentrations from 100 to 500 ppm. For each concentration, a set of five sucrose solution reference standards were prepared in 0.5% (w/w) increments to approximately bracket the sweetness intensity of the test sample. A panel of 6-8 trained judges evaluated each test sample in duplicate, accompanied by the corresponding reference standards, and assigned a sweetness intensity score to the sample to the nearest 0.1 unit. Samples were presented in 4-oz soufflé cups at room temperature, and the test sample was labeled with a random 3-digit code. The sweetness intensity scores were then plotted as a function of mogroside concentration to make a concentration response curve, and the best fitting Beidler equation was generated. P=SEV*10,000/C • where C is the concentration of the mogroside blend in ppm or mg/L and SEV is the % sucrose equivalent sweetness determined by sensory panel.

[2] = system: sensory panel of experienced judges; test: Descriptive analysis of sweetener attributes on a 15-cm line scale, low (0) to high (60); assay type: in vivo, human; settings: about 6 SEV solution, 0=low, 60=high
Excerpt: The same samples described above were presented to a panel of 6-9 experienced judges for descriptive analysis. Solutions were blind-coded with random 3-digit codes and served at room temperature for evaluation. Panelists individually scored attributes of each sample, such as sweetness intensity, bitterness, astringency, and the presence of side flavors such as licorice or fruitiness. Scores were based on a 15-cm line scale marked with evenly spaced 5-point increments from low (0) to high (60). Samples were evaluated in duplicate. Water and […] crackers were provided for rinsing between samples. A solution of […] was made at 410 ppm in spring water (Ice Mountain, retail) to be about 6 SEV. A second solution was made at about 6 SEV of purified mogroside-V (Chem Faces, CFS202202) at 325 ppm. A panel of 7-8 trained judges evaluated the temporal properties and taste attributes of each sample, including blind duplicates, in the same manner described previously in the Mogroside Blend 80/15/5 Taste Quality sections. The panel also evaluated the intensity of several sensory attributes such as bitterness, astringency, caramel flavor, and fruitiness. The same 15-cm line scale was used for scoring, labeled from low (0) to high (60) with evenly spaced 5-point increments. The samples were served in 4-oz soufflé cups that were labeled with random 3-digit codes. Samples were evaluated at room temperature and included blind duplicates. Water and […] crackers were provided for rinsing between samples. A 400-ppm solution of V90 (Huacheng Bio, LHGE-230401) was tasted as a reference at the beginning of the descriptive analysis session for calibration verification among panelists.

[3] = system: sensory panel of trained judges; test: Temporal properties: onset of sweetness, time to maximum sweetness, decay after expectorating; assay type: in vivo, human; settings: 600 ppm, about 6 SEV, in spring water
Protocol: Equi-sweet solutions at about 6 SEV were made in spring water (Ice Mountain, retail) of the following sweeteners: purified mogroside-V (Chem Faces, CFS202202), rebaudioside M (95%, Tate & Lyle, lot #1802-2302-1), rebaudioside A (95%, Tate & Lyle, 210617-01), and monk fruit (50% mogroside V, Tate & Lyle, 45GF220305). Another solution was prepared at about 6 SEV of a blend composed of 80% purified mogroside-V (Chem Faces, CFS202202), 15% 11-oxo-mogroside-V (Chem Faces, CFS202201), and 5% mogroside IIIA-1 (Chem Faces, CFS202201). The concentration of each solution can be found in Table 7.
A set of samples of each solution was evaluated by a panel of 7-9 trained judges. Panelists measured the time to onset of sweetness and time to reach maximum sweetness using a timer. Sweetness decay after expectorating was measured by rating sweetness intensity every 5 seconds on a 15-cm line scale graduated in evenly spaced 5-point increments and labeled low (0) to high (60). […] Blind duplicates were evaluated in a second panel under the same conditions.
A solution of V90 was made at 410 ppm in spring water (Ice Mountain, retail) to be about 6 SEV. […] A panel of 7-8 trained judges evaluated the temporal properties and taste attributes of each sample, including blind duplicates, in the same manner described previously in the Mogroside Blend 80/15/5 Taste Quality sections. […]

[4] = system: sensory panel of trained judges; settings: 6 SEV solution of sucrose; cited from earlier work
[5] = in spring water, from Beidler curve

Row | SMILES | Potency at 5 SEV [1, 5] [x] | Beidler equation SEV=a*C/(b+C): constant b (concentration) [1] [ppm] | Beidler equation SEV=a*C/(b+C): constant a (maximum SEV) [1] [SEV] | Astringent, average intensity score [2] | Bitterness, average intensity score [2] | Body, average intensity score [2] | Caramel, average intensity score [2] | Fruity, average intensity score [2] | Licorice, average intensity score [2] | Sweet Linger, average intensity score [2] | Sweetness, average intensity score [2] | other results
1 | C[C@H](CC[C@@H](O[C@@H]1O[C@H](CO[C@@H]2O[C@H](CO)[C@@H](O)[C@H](O)[C@H]2O)[C@@H](O)[C@H](O)[C@H]1O[C@@H]1O[C@H](CO)[C@@H](O)[C@H](O)[C@H]1O)C(C)(C)O)[C@H]1CC[C@@]2(C)[C@@H]3CC=C4[C@@H](CC[C@H](O[C@@H]5O[C@H](CO[C@@H]6O[C@H](CO)[C@@H](O)[C@H](O)[C@H]6O)[C@@H](O)[C@H](O)[C@H]5O)C4(C)C)[C@]3(C)[C@H](O)C[C@]12C [Mogroside V, mogroside V] | 185 | 920.8 | 22.03 | – | – | – | – | – | – | – | – | times as sweet as sucrose at 5 SEV ([1]; in spring water, listed as purified Mog-V): ~200 times as sweet as sucrose; times as sweet as sucrose at 5 SEV ([1]; in spring water, running text, listed as mogroside V): 185 times as sweet as sucrose; times as sweet as sucrose at 5 SEV ([1]; in spring water, running text, listed as mogroside-V): about 185 times as sweet as sucrose; Potency at 10 SEV ([1]; 10 SEV, in spring water, from Beidler curve, beyond tested concentrations): 131x; Astringent, average intensity score ([2]; listed as Mog·V): 2.5¤; Bitterness, average intensity score ([2]; listed as Mog·V): 1.4¤; Body, average intensity score ([2]; listed as Mog·V): 12.1¤; Caramel, average intensity score ([2]; listed as Mog·V): 4.5¤; Fruity, average intensity score ([2]; listed as Mog·V): 3.0¤; Licorice, average intensity score ([2]; listed as Mog·V): 0.7¤; Sweet Linger, average intensity score ([2]; listed as Mog·V): 14.3¤; Sweetness, average intensity score ([2]; listed as Mog·V): 36.3¤
2 | C=C1C[C@@]23CC[C@H]4[C@@](C)(CCC[C@@]4(C)C(=O)O[C@@H]4O[C@H](CO)[C@@H](O)[C@H](O)[C@H]4O)[C@@H]2CC[C@]1(O[C@@H]1O[C@H](CO)[C@@H](O)[C@H](O[C@@H]2O[C@H](CO)[C@@H](O)[C@H](O)[C@H]2O)[C@H]1O[C@@H]1O[C@H](CO)[C@@H](O)[C@H](O)[C@H]1O)C3 [Rebaudioside A, rebaudioside A] | – | – | – | 3.7¤ | 11.2¤ | 9.1¤ | 1.9¤ | 1.3¤ | 2.7¤ | 9.6¤ | 35.1¤ | –
3 | C[C@H](CC[C@@H](O[C@@H]1O[C@H](CO[C@@H]2O[C@H](CO)[C@@H](O)[C@H](O)[C@H]2O)[C@@H](O)[C@H](O)[C@H]1O[C@@H]1O[C@H](CO)[C@@H](O)[C@H](O)[C@H]1O)C(C)(C)O)[C@H]1CC[C@@]2(C)[C@@H]3CC=C4[C@@H](CC[C@H](O)C4(C)C)[C@]3(C)[C@H](O)C[C@]12C [Mogroside IIIA-1, mogroside III-A1] | 71 | 139.9 | 6.00 | – | – | – | – | – | – | – | – | bitter taste still present after expectorating [3]: more than 60 seconds
4 | C=C1C[C@@]23CC[C@H]4[C@@](C)(CCC[C@@]4(C)C(=O)O[C@@H]4O[C@H](CO)[C@@H](O)[C@H](O[C@@H]5O[C@H](CO)[C@@H](O)[C@H](O)[C@H]5O)[C@H]4O[C@@H]4O[C@H](CO)[C@@H](O)[C@H](O)[C@H]4O)[C@@H]2CC[C@]1(O[C@@H]1O[C@H](CO)[C@@H](O)[C@H](O[C@@H]2O[C@H](CO)[C@@H](O)[C@H](O)[C@H]2O)[C@H]1O[C@@H]1O[C@H](CO)[C@@H](O)[C@H](O)[C@H]1O)C3 [Rebaudioside M, rebaudioside M] | – | – | – | 2.0¤ | 1.7¤ | 11.2¤ | 3.5¤ | 1.6¤ | 1.0¤ | 17.3¤ | 36.4¤ | –
5 | OC[C@H]1O[C@@](CO)(O[C@H]2O[C@H](CO)[C@@H](O)[C@H](O)[C@H]2O)[C@@H](O)[C@@H]1O [sucrose] | – | – | – | – | – | – | – | – | – | – | – | sweet linger decay time (typical value) [4]: 20 to 25 s
6 | C[C@H](CC[C@@H](O[C@@H]1O[C@H](CO[C@@H]2O[C@H](CO)[C@@H](O)[C@H](O)[C@H]2O)[C@@H](O)[C@H](O)[C@H]1O[C@@H]1O[C@H](CO)[C@@H](O)[C@H](O)[C@H]1O)C(C)(C)O)[C@H]1CC[C@@]2(C)[C@@H]3CC=C4[C@@H](CC[C@H](O[C@@H]5O[C@H](CO[C@@H]6O[C@H](CO)[C@@H](O)[C@H](O)[C@H]6O)[C@@H](O)[C@H](O)[C@H]5O)C4(C)C)[C@]3(C)C(=O)C[C@]12C [11-oxo-mogroside V] | 28 | 546.3 | 6.56 | – | – | – | – | – | – | – | – | times as sweet as sucrose at 5 SEV ([1]; in spring water, running text, listed as 11-oxo mogroside-V): approximately 28 times as sweet as sucrose; times as sweet as sucrose at 5 SEV ([1]; in spring water, running text, listed as 11-oxo-mogroside-V): 28 times as sweet as sucrose
